Drawing on patent publication US6215002A, “Pyrrolopyrrolone derivatives as inhibitors of neutrophil elastase” (priority 1996, dated 2001), this text covers IC50 and duration of effect for 24 compounds.

Counter-ions that a name gives are not always drawn.

Assay [1] deals with T1, human neutrophil elastase (Homo sapiens, UniProt P08246).
T1 sequence (P08246 30-267): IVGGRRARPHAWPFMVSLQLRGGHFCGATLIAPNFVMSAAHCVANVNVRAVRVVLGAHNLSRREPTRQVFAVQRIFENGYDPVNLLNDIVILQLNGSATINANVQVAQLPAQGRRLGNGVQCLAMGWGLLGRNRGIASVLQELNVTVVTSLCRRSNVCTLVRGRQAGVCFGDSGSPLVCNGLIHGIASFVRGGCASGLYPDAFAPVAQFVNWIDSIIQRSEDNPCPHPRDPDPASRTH
Kind of assay: In vitro assay of human neutrophil elastase (HNE). The format is biochemical. The following applies: 118 nM purified human neutrophil elastase, pH 8.6, 15 min incubation at 30° C., MeO-succinyl-alanyl-alanyl-prolyl-valyl-p-nitroanilide substrate; read-out: HNE IC50. In outline:
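Residual activity was taken as the 10 min rate of absorbance rise at 405 nm after adding 0.6 mM MeO-succinyl-AAPV-p-nitroanilide. Curve fitting of activity against concentration gave IC50.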

For assay [2], the system named is Intracellular elastase. Kind of assay: Oral in vivo model using IL-8 induced lung infiltrates for the assessment of intracellular elastase inhibition (hamster test). The following applies: effective dose of less than 40 mg/kg, IL-8 intratracheal. As to the method: An Oral in vivo Model Using IL-8 Induced Lung Infiltrates For the Assessment of Intracellular Elastase Inhibition
Adult hamsters (100-150 g) are randomised into groups (n=4) and fasted overnight. Under gaseous anaesthetic (3% isofluorane) animals are dosed orally with 1 mL/100 g water as vehicle or containing predissolved compounds. Either at the same time, or subsequently under anaesthetic, animals are dosed intratracheally with 1 ug recombinant human IL-8 in 100 uL sterile saline. Six hours after IL-8 dosing animals are sacrificed using intrapertoneal pentobarbitone. The lungs are ravaged with 2×2.5 mL sterile saline and femurs are removed by dissection.
Intracellular elastase is prepared from neutrophils collected by lavage and from femoral bone marrow. This is achieved by sonication of the neutrophils and centrifugation to yield intracellular granules. These are disrupted by freeze/thawing and sonication. Elastase and myeloperoxidase assays are then performed on these samples to assess the efficacy of the compounds and to normalise for neutrophil recovery.

For orientation: IC50 means the concentration that inhibits the measured activity by half. Consider `CCC[C@H]1C(=O)N(S(C)(=O)=O)[C@H]2CCN(C(=O)/C=C/CN3CCN(C)CC3)[C@H]12.Cl.Cl` (relative stereo) [Example 254, rel-(3R,3aR,6aS)-1-Methanesulfonyl-4-[4-(4-methyl-piperazin-1-yl)-but-2E-enoyl]-3-propyl-hexahydro-pyrrolo[3,2-b]pyrrol-2-one dihydrochloride], for which the IC50 in assay [1] stood at 97 nM. In assay [2], the duration of effect result was “at least 6 hours”.
The matching figures for `CON(C)C/C=C/C(=O)N1CC[C@H]2[C@H]1[C@@H](C(C)C)C(=O)N2S(C)(=O)=O` (relative stereo) [Example 147, rel-(3R,3aR,6aS)-3-Isopropyl-1-methanesulfonyl-4-[4-(methoxy-methyl-amino)-but-E2-enoyl]-hexahydro-pyrrolo[3,2-b]pyrrol-2-one hydrochloride]: 96 nM and “at least 6 hours”.
As to `CC(C)[C@H]1C(=O)N(S(C)(=O)=O)[C@H]2CCN(C(=O)/C=C/CN3CCCCC3)[C@H]12.Cl` (relative stereo) [Example 135, rel-(3R,3aR,6aS)-3-Isopropyl-1-methanesulfonyl-4-(4-piperidin-1-yl-but-2E-enoyl)-hexahydro-pyrrolo[3,2-b]pyrrol-2-one hydrochloride], the duration of effect result in assay [2] is on record as “at least 6 hours”.
On the same count and under the same terms, with `CC(C)[C@H]1C(=O)N(S(C)(=O)=O)[C@H]2CCN(C(=O)/C=C/CN3CCCCC3)[C@H]12.Cl` [Example 155, (3R,3aR,6aS)-3-Isopropyl-1-methanesulfonyl-4-(4-piperidin-1-yl-but-2E-enoyl)-hexahydro-pyrrolo[3,2-b]pyrrol-2-one hydrochloride] the entry was “at least 6 hours”.
The same measure, in the same setting: with `CC(C)[C@@H]1C(=O)N(S(C)(=O)=O)[C@@H]2CCN(C(=O)/C=C/CN3CCCCC3)[C@H]21.Cl` [Example 154, (3S,3aS,6aR)-3-Isopropyl-1-methanesulfonyl-4-(4-piperidin-1-yl-but-2E-enoyl)-hexahydro-pyrrolo[3,2-b]pyrrol-2-one hydrochloride] the entry was “at least 6 hours”.
For `CCC[C@H]1C(=O)N(S(C)(=O)=O)[C@H]2CCN(S(=O)(=O)c3ccc(C(=O)O)cc3)[C@@H]12` (relative stereo) [Example 122, rel-(3aS,6R,6aS)-4-(4-Methanesulfonyl-5-oxo-6-propyl-hexahydro-pyrrolo[3,2-b]pyrrole-1-sulfonyl)-benzoic acid], the half-inhibitory concentration (IC50) in assay [1] was found to be 4 nM.
As to `CCC[C@H]1C(=O)N(S(C)(=O)=O)[C@H]2CCN(C(=O)CCCN3CCC3)[C@H]12` (relative stereo) [Example 84, rel-(3R,3aR,6aS)-4-(4-Azetidin-1-yl-butyryl)-1-methanesulfonyl-3-propyl-hexahydro-pyrrolo[3,2-b]pyrrol-2-one DL-tartrate], the half-inhibitory concentration (IC50) in assay [1] worked out at 134 nM.
Still for that read-out and setting: with `CCC[C@H]1C(=O)N(S(C)(=O)=O)[C@H]2CCN(S(=O)(=O)c3ccc(C(=O)NCCN(C)C)cc3)[C@H]12` (relative stereo) [Example 123, rel-N-(2-Dimethylamino-ethyl)-4-(4-methanesulfonyl-5-oxo-6R-propyl-hexahydro-(3aS,6aR)-pyrrolo[3,2-b]pyrrole-1-sulfonyl)-benzamide hydrochloride] the figure was 14 nM.
Take `CCC[C@H]1C(=O)N(S(=O)(=O)c2cccc3cccnc23)[C@H]2CCN(S(C)(=O)=O)[C@H]12` (relative stereo) [Example 52, rel-(3R,3aR,6aS)-4-Methanesulfonyl-3-propyl-1-(quinoline-8-sulfonyl)-hexahydro-pyrrolo[3,2-b]pyrrol-2-one]: the IC50 in assay [1] came out at 222 nM.
The same measure, in the same setting: with `CCCCOc1ccc(S(=O)(=O)N2CC[C@H]3[C@H]2[C@@H](CCC)C(=O)N3S(C)(=O)=O)cc1` (relative stereo) [Example 214, rel-(3R,3aR,6aS)-4-(4-Butoxy-benzenesulfonyl)-1-methanesulfonyl-3-propyl-hexahydro-pyrrolo[3,2-b]pyrrol-2-one] the figure was 464 nM; with `CCC[C@H]1C(=O)N(S(C)(=O)=O)[C@H]2CCN(C(=O)CCCN3CCCC3)[C@H]12` (relative stereo) [Example 89, rel-(3R,3aR,6aS)-1-Methanesulfonyl-3-propyl-4-(4-pyrrolidin-1-yl-butyryl)-hexahydro-pyrrolo[3,2-b]pyrrol-2-one hydrochloride], 183 nM; with `CC(C)[C@H]1C(=O)N(S(C)(=O)=O)[C@H]2CCN(S(=O)(=O)c3ccc(S(C)(=O)=O)cc3)[C@H]12` (relative stereo) [Example 227, rel-(3R,3aR,6aS)-3-Isopropyl-1-methanesulfonyl-4-(4-methanesulfonyl-benzenesulfonyl)-hexahydro-pyrrolo[3,2-b]pyrrol-2-one], 118 nM.
For `CCC[C@H]1C(=O)N(S(C)(=O)=O)[C@H]2CCN(S(=O)(=O)c3ccc(C(=O)N4CCCCC4)cc3)[C@H]12` (relative stereo) [Example 119, rel-(3R,3aR,6aS)-1-Methanesulfonyl-4-[4-(piperidine-1-carbonyl)-benzenesulfonyl]-3-propyl-hexahydro-pyrrolo[3,2-b]pyrrol-2-one], the IC50 in assay [1] came to 34 nM.
On the same count and under the same terms, with `CCC[C@H]1C(=O)N(S(=O)(=O)c2cccc3ccccc23)[C@H]2CCN(S(C)(=O)=O)[C@H]12` (relative stereo) [Example 31, rel-(3R,3aR,6aS)-4-Methanesulfonyl-1-(naphthalene-1-sulfonyl)-3-propyl-hexahydro-pyrrolo[3,2-b]pyrrol-2-one] the figure was 80 nM; with `CCC[C@H]1C(=O)N(S(=O)(=O)c2ccc3ccccc3c2)[C@H]2CCN(C(=O)CCN3CCCCC3)[C@H]12` [Example 56, (3R,3aR,6aS)-1-(Naphthalene-2-sulfonyl)-4-(3-piperidin-1-yl-propionyl)-3-propyl-hexahydro-pyrrolo[3,2-b]pyrrol-2-one hydrochloride], 81 nM.
Still for that read-out and setting: with `CCC[C@H]1C(=O)N(S(C)(=O)=O)[C@H]2CCN(C(=O)CCNC(C)=O)[C@H]12` (relative stereo) [Example 96, rel-N-[3-(4-Methanesulfonyl-5-oxo-6R-propyl-hexahydro-(3aS,6aR)-pyrrolo[3,2-b]pyrrol-1-yl)-3-oxo-propyl]-acetamide] the figure was 134 nM.
Still for that read-out and setting: with `CCC[C@H]1C(=O)N(S(C)(=O)=O)[C@H]2CCN(C(=O)c3ccncc3)[C@H]12` (relative stereo) [Example 246, rel-(3R,3aR,6aS)-1-Methanesulfonyl-3-propyl-4-(pyridine-4-carbonyl)-hexahydro-pyrrolo[3,2-b]pyrrol-2-one] the figure was 21 nM; with `CCC[C@H]1C(=O)N(S(=O)(=O)c2ccc3ccccc3c2)[C@H]2CCN(C(=O)CN3CCCCC3)[C@H]12` (relative stereo) [Example 3, rel-(3R,3aR,6aS)-1-(Naphthalene-2-sulfonyl)-4-(2-piperidin-1-yl-acetyl)-3-propyl-hexahydro-pyrrolo[3,2-b]pyrrol-2-one], 205 nM.
`C=CC[C@H]1C(=O)N(S(=O)(=O)c2ccc3c(c2)CCCC3)[C@H]2CCN(C(=O)OCc3ccccc3)[C@H]12` (relative stereo) [Example 20, rel-(3aS,6R,6aR)-6-Allyl-5-oxo-4-(5,6,7,8-tetrahydro-naphthalene-2-sulfonyl)-hexahydro-pyrrolo[3,2-b]pyrrole-1-carboxylic acid benzyl ester]: the IC50 in assay [1] was determined as 57 nM.
For the compound `CCC[C@H]1C(=O)N(S(C)(=O)=O)[C@H]2CCN(C(=O)CCCN3CCCCC3)[C@H]12` (relative stereo) [Example 87, rel-(3R,3aR,6aS)-1-Methanesulfonyl-4-(4-piperidin-1-yl-butyryl)-3-propyl-hexahydro-pyrrolo[3,2-b]pyrrol-2-one DL-tartrate], the IC50 in assay [1] was 96 nM.
Still for that read-out and setting: with `CCC[C@H]1C(=O)N(S(=O)(=O)c2cccc3ccccc23)[C@H]2CCN(C(=O)C3CCNCC3)[C@H]12` (relative stereo) [Example 17, trifluoroacetate] the figure was 342 nM; with `CCC[C@H]1C(=O)N(S(=O)(=O)C(C)C)[C@H]2CCN(C(=O)CCN3CCCCC3)[C@H]12` (relative stereo) [Example 161, rel-(3R,3aR,6aS)-4-(3Piperidin-1-yl-propionyl)-1-(propane-2-sulfonyl)-3-propyl-hexahydro-pyrrol[3,2-b]pyrrol-2-one DL-tartrate], 1030 nM; with `CCC[C@H]1C(=O)N(S(C)(=O)=O)[C@H]2CCN(C(=O)CCCCCN3CCCN(C)CC3)[C@H]12` (relative stereo) [Example 80, rel-(3R,3aR,6aS)-1-Methanesulfonyl-4-[6-(4-methyl-[1,4]diazepin-1-yl)-hexanoyl]-3-propyl-hexahydro-pyrrolo[3,2-b]pyrrol-2-one hydrochloride], 61 nM.
The same measure, in the same setting: with `CCC[C@H]1C(=O)N(S(=O)(=O)c2ccc3ccccc3c2)[C@H]2CCN(S(=O)(=O)CCCN3CCCCC3)[C@H]12` (relative stereo) [Example 13, rel-(3R,3aR,6aS)-1-(Naphthalene-2-sulfonyl)-(3-piperidin-1-yl-propane-1-sulfonyl)-3-propyl-hexahydro-pyrrolo[3,2-b]pyrrol-2-one] the figure was 543 nM.
